What was measured:
[1] = tested on: Plutella xylostella eggs (Waite strain); experiment: Effect of added metal ions (FeSO4) on inhibition of Plutella xylostella egg hatching; format: in vivo; settings: Table 18
Experimental: Within 24 hours of collection the following experimental design was chosen. Batches of eggs were exposed to either 10 mM 6,6′-dimethyl-2,2′-dipyridyl or solvent only (methanol) for 2 seconds. All batches of eggs were allowed to air dry for 20 minutes at room temperature. The eggs were then given a 2 second exposure to FeSO4 at either 10, 5 or 1 mM, air dried and put in the incubator at 24° C. and allowed to hatch over the next 6 days. In addition, a positive control of 10 mM 6,6′-dimethyl-2,2′-dipyridyl was set up in which eggs were exposed to this compound for 2 seconds, air dried and placed in the incubator.
Within 24 hours of collection the following experimental design was chosen. Batches of eggs were exposed to 10 mM 5,5′dimethyl-2,2′-dipyridyl or solvent only (methanol) for 2 seconds. All batches of eggs were allowed to air dry for 20 minutes at room temperature. The eggs were then given a 2 second exposure to FeSO4 at 10, 5 or 1 mM, air dried and put in an incubator at 24° C. and allowed to hatch over the next 6 days. In addition, a positive control of 10 mM, 5,5′-dimethyl-2,2′-dipyridyl was set up in which eggs were exposed to this compound for 2 seconds, air dried and placed in the incubator.

[2] = tested on: B. ovis eggs; experiment: Egg hatching in Bovicola ovis; format: in vivo; settings: 10 mM, 10 eggs per replicate
Experimental: B. ovis eggs were collected from the wool of sheep that were infested with this parasite. The eggs were collected using forceps and with the aid of a dissecting microscope and placed in 24 well tissue culture plates in duplicate lots of 10 eggs per replicate. The eggs were then exposed to either methanol alone (solvent control) or the test compounds for either 10 minutes or 1 minute or left as untreated controls before being removed from the wells and placed into individual glass vials containing a diet at the base of the tube. The tubes were placed in plastic containers containing a salt solution (to keep humidity constant at 68%) and the containers maintained at a temperature 32° C. The eggs were monitored for hatching over the following 12 days and % hatch inhibition determined in comparison to the controls.

[3] = tested on: Plutella xylostella eggs (Waite strain); experiment: Egg hatching of Plutella xylostella; settings: for % Inhibition: relative to controls
[4] = tested on: lice eggs; experiment: Time-course in vitro lice egg hatching assay; format: in vivo, clothing lice (Pediculus humanus humanus); settings: 10 mM
[5] = tested on: Helicoverpa armigera eggs (Tatura×Toowoomba strains); experiment: Egg hatching of Helicoverpa armigera; settings: Table 15; 10 mM
Experimental: Several hundred Helicoverpa armigera eggs (Tatura×Toowoomba strains) were collected, that had been laid on fine mesh cloth over a 24 hour period.
Batches of Helicoverpa eggs were exposed to a specific inhibitor solution for between 2-10 seconds the excess solution drained by blotting with dry tissue paper. The egg masses were then placed in a humid box at 25 degrees until egg hatch. Control eggs were exposed to absolute methanol as described above.

[6] = 10 mM inhibitor alone, (+ve) control
[7] = 10 mM inhibitor followed by 2 second exposure to 1 mM FeSO4
[8] = 10 mM inhibitor followed by 2 second exposure to 5 mM FeSO4
[9] = 10 mM inhibitor followed by 2 second exposure to 10 mM FeSO4
[10] = 10 mM inhibitor followed by 2 second exposure to MEOH
[11] = Table 10, 1 mM, eggs laid on cloth
[12] = Table 10, 10 mM, eggs laid on cloth
[13] = Table 11, 1 mM, eggs laid on parafilm
[14] = Table 11, 10 mM, eggs laid on parafilm
[15] = Table 12, 0.01 mM, cloth, dipped approximately 2 seconds
[16] = Table 12, 0.1 mM, cloth, dipped approximately 2 seconds
[17] = Table 12, 1 mM, cloth, dipped approximately 2 seconds
[18] = Table 12, 10 mM, cloth, dipped approximately 2 seconds
[19] = Table 13, 0.1 mM, cloth, dipped approximately 2 seconds
[20] = Table 13, 1 mM, cloth, dipped approximately 2 seconds

SMILES: Cc1ccc(-c2ccc(C)cn2)nc1 [5,5′-dimethyl-2,2′-dipyridyl]
- % Inhibition [1, 6]: 100%
- Number hatched [1, 6]: 0
- Number unhatched [1, 6]: 38
- Number hatched [1, 7]: 39
- Number unhatched [1, 7]: 0
- % Inhibition ([1]; 10 mM inhibitor followed by 2 second exposure to 1 mM FeSO4, relative to the FeSO4 only controls): 0%
- Number hatched [1, 8]: 25
- Number unhatched [1, 8]: 0
- % Inhibition ([1]; 10 mM inhibitor followed by 2 second exposure to 5 mM FeSO4, relative to the FeSO4 only controls): 0%
- Number hatched [1, 9]: 23
- Number unhatched [1, 9]: 2
- % Inhibition ([1]; 10 mM inhibitor followed by 2 second exposure to 10 mM FeSO4, relative to the FeSO4 only controls): 8%
- Number hatched [1, 10]: 16
- Number unhatched [1, 10]: 19
- Number unhatched ([2]; 1 minute exposure): 10
- Number unhatched ([2]; 10 minute exposure): 10
- Number hatched [3, 11]: 5
- Number unhatched [3, 11]: 22
- % Inhibition [3, 11]: 78%
- Number hatched [3, 12]: 0
- Number unhatched [3, 12]: 21
- % Inhibition [3, 12]: 100%
- Number hatched [3, 13]: 18
- Number unhatched [3, 13]: 151
- % Inhibition [3, 13]: 88%
- Number hatched [3, 14]: 0
- Number unhatched [3, 14]: 142
- % Inhibition [3, 14]: 100%
- Number hatched [3, 15]: 37
- Number unhatched [3, 15]: 3
- Number hatched [3, 16]: 22
- Number unhatched [3, 16]: 16
- Number hatched [3, 17]: 1
- Number unhatched [3, 17]: 45
- Number hatched [3, 18]: 0
- Number unhatched [3, 18]: 68
- Number hatched [3, 19]: 32
- Number unhatched [3, 19]: 52
- Number hatched [3, 20]: 2
- Number unhatched [3, 20]: 118
- % Inhibition of lice egg hatching (maximum over the time-course) [4]: 100%
- Number hatched [5]: 0
- Number unhatched [5]: 42
